Measured values taken from patent publication EP0620225B1, “Cephalosporin derivatives” (Basilea Pharmaceutica AG, priority 1993, dated 1994).
Converted amounts (≈) assume the structure as drawn.

Legend:
S.agalactiae QK44 = test: Antibacterial spectrum (MIC), agar dilution; format: cell-based; settings: Streptococcus agalactiae, read-out: MIC
Procedure: (§1) In vitro activity was determined by minimum inhibitory concentration in a microorganism spectum by the agar dilution method in Mueller Hinton agar.

Acinetobacter sp.51-156 = test: Antibacterial spectrum (MIC), agar dilution; format: cell-based; settings: SP.51156, read-out: MIC
Procedure: as §1

C.freundii 43 = test: Antibacterial spectrum (MIC), agar dilution; format: cell-based; settings: Citrobacter freundii, read-out: MIC
Procedure: as §1

P.vulgaris 1028 = test: Antibacterial spectrum (MIC), agar dilution; format: cell-based; settings: Proteus vulgaris, read-out: MIC
Procedure: as §1

E.coli 25922 = test: Antibacterial spectrum (MIC), agar dilution; format: cell-based; settings: Escherichia coli, read-out: MIC
Procedure: as §1

H.influenzae 1 = test: Antibacterial spectrum (MIC), agar dilution; format: cell-based; settings: Haemophilus influenzae, read-out: MIC
Procedure: as §1

E.faecalis 6 = test: Antibacterial spectrum (MIC), agar dilution; format: cell-based; settings: Enterococcus faecalis, read-out: MIC
Procedure: as §1

M.catarrhalis RA21 = test: Antibacterial spectrum (MIC), agar dilution; format: cell-based; settings: Moraxella catarrhalis, read-out: MIC
Procedure: as §1

S.marcescens 69438 = test: Antibacterial spectrum (MIC), agar dilution; format: cell-based; settings: Serratia marcescens, read-out: MIC
Procedure: as §1

P.aeruginosa 27853 = test: Antibacterial spectrum (MIC), agar dilution; format: cell-based; settings: Pseudomonas aeruginosa, read-out: MIC
Procedure: as §1

S.viridans group 016 = test: Antibacterial spectrum (MIC), agar dilution; format: cell-based; settings: Streptococcus viridans, read-out: MIC
Procedure: as §1

S.aureus 6538 = test: Antibacterial spectrum (MIC), agar dilution; format: cell-based; settings: Staphylococcus aureus, read-out: MIC
Procedure: as §1

S.pyogenes B15 = test: Antibacterial spectrum (MIC), agar dilution; format: cell-based; settings: Streptococcus pyogenes, read-out: MIC
Procedure: as §1

E.cloacae 908R = test: Antibacterial spectrum (MIC), agar dilution; format: cell-based; settings: Enterobacter cloacae, read-out: MIC
Procedure: as §1

E.cloacae 908SSi = test: Antibacterial spectrum (MIC), agar dilution; format: cell-based; settings: Enterobacter cloacae, read-out: MIC
Procedure: as §1

P.mirabilis 2117 = test: Antibacterial spectrum (MIC), agar dilution; format: cell-based; settings: Proteus mirabilis, read-out: MIC
Procedure: as §1

C.freundii 902 = test: Antibacterial spectrum (MIC), agar dilution; format: cell-based; settings: Citrobacter freundii, read-out: MIC
Procedure: as §1

M.morganii 6H-137 = test: Antibacterial spectrum (MIC), agar dilution; format: cell-based; settings: Morganella morganii, 6H137, read-out: MIC
Procedure: as §1

S.pneumoniae Q19 = test: Antibacterial spectrum (MIC), agar dilution; format: cell-based; settings: Streptococcus pneumoniae, read-out: MIC
Procedure: as §1

X.maltophilia 1AC739 = test: Antibacterial spectrum (MIC), agar dilution; format: cell-based; settings: Stenotrophomonas maltophilia, read-out: MIC
Procedure: as §1

N.meningitidis 69480 = test: Antibacterial spectrum (MIC), agar dilution; format: cell-based; settings: Neisseria meningitidis, read-out: MIC
Procedure: as §1

S.aureus 734 MRSA = test: Antibacterial spectrum (MIC), agar dilution; format: cell-based; settings: Staphylococcus aureus, read-out: MIC
Procedure: as §1

K.pneumoniae 418 = test: Antibacterial spectrum (MIC), agar dilution; format: cell-based; settings: Klebsiella pneumoniae, read-out: MIC
Procedure: as §1

S.aureus MSSA = test: In vitro activity against selected species (MIC50, MIC90, range); format: cell-based; settings: Staphylococcus aureus, medium MHB (Mueller Hinton Broth)
S.viridans group = test: as above; format: cell-based; settings: Streptococcus viridans
E.faecium = test: In vitro activity against selected species (MIC50, range); format: cell-based; settings: Enterococcus faecium, medium MHA
Procedure: as §1

S.aureus MRSA = test: In vitro activity against selected species (MIC50, MIC90, range); format: cell-based; settings: Staphylococcus aureus, medium MHA (Mueller Hinton Agar) +NaCl; for MIC: MIC range
Procedure: as §1

E.faecalis [1] = test: as above; format: cell-based; settings: Enterococcus faecalis, medium MHA; for MIC: MIC range
Procedure: as §1

S.aureus Smith = test: Efficacy against systemic infections (septicemia) in mice; format: in vivo; settings: Staphylococcus aureus, 96 h, sc 1 and 3 h after challenge, survival day 4
Procedure: (§2) Septicemia was induced in outbred Swiss albino mice (Jbm MoRo [specific pathogen free]; weight 16 to 20 g, Biomedical Research Laboratories, Füllinsdorf, Switzerland). Mice were infected by intraperitoneal injection of diluted overnight cultures of the test organisms. Bacterial challenge doses were 4-10 times the number of organisms required to kill 50% of untreated animals within 48 h. The test compounds were administered p.o. or s.c. 1 and 3 h after the bacterial challenge. To treat the infection with Pseudomonas aeruginosa BA an additional dose was given 5 h after challenge. Control and treatment groups at each dose were composed of five mice each. The 50% effective dose (ED50, in milligrams per kilogram) was calculated by probit analysis as described by Finney (Finney, D.J. 1978, Statistical method in biological assay, 3rd ed. Charles Griffin & Co., Ltd., London), from the survival rates on day 4 after infection.

Escherichia coli 25922 = test: as above; format: in vivo; settings: 96 h, survival day 4
Procedure: as §2

S.pneumoniae PEN-R = test: In vitro activity against selected species (MIC50, MIC90, range); format: cell-based; settings: Streptococcus pneumoniae; for MIC: MIC range
M.catarrhalis = test: as above; format: cell-based; settings: Moraxella catarrhalis, medium IsoB
E.faecalis [2] = test: as above; format: cell-based; settings: Enterococcus faecalis, medium IsoB
[3] = medium IsoB (Isosensitest Broth)

Nc1nc(/C(=N/O)C(=O)N[C@@H]2C(=O)N3C(C(=O)O)=C(/C=C4\CCN(C5CC5)C4=O)CS[C@H]23)cs1 [D, [6R-[3(E),6α,7β(Z)]]-7-[[(2-Amino-4-thiazolyl)(hydroxyimino)-acetyl]amino] -3-[[1-cyclopropyl-2-oxo-3-pyrrolidinylidene]-methyl)-8-oxo-5-thia-1-azabicyclo[4.2.0]-oct-2-ene-2-carboxylic acid]
MIC (S.agalactiae QK44): 0.25 µg/mL (≈ 0.495 µM)
MIC (Acinetobacter sp.51-156): 16 µg/mL (≈ 31.7 µM)
MIC (C.freundii 43): 2 µg/mL (≈ 3.96 µM)
MIC (P.vulgaris 1028): 1 µg/mL (≈ 1.98 µM)
MIC (E.coli 25922): ≤ 0.06 µg/mL
MIC (H.influenzae 1): 0.25 µg/mL (≈ 0.495 µM)
MIC (E.faecalis 6): 1 µg/mL (≈ 1.98 µM)
MIC (M.catarrhalis RA21): 8 µg/mL (≈ 15.9 µM)
MIC (S.marcescens 69438): 0.5 µg/mL (≈ 0.991 µM)
MIC (P.aeruginosa 27853): 8 µg/mL (≈ 15.9 µM)
MIC (S.viridans group 016): 1 µg/mL (≈ 1.98 µM)
MIC (S.aureus 6538): 0.5 µg/mL (≈ 0.991 µM)
MIC (S.pyogenes B15): ≤ 0.06 µg/mL
MIC (E.cloacae 908R): 8 µg/mL (≈ 15.9 µM)
MIC (E.cloacae 908SSi): 0.12 µg/mL (≈ 0.238 µM)
MIC (P.mirabilis 2117): ≤ 0.06 µg/mL
MIC (C.freundii 902): ≤ 0.06 µg/mL
MIC (M.morganii 6H-137): ≤ 0.06 µg/mL
MIC (S.pneumoniae Q19): ≤ 0.06 µg/mL
MIC (X.maltophilia 1AC739): > 32 µg/mL
MIC (N.meningitidis 69480): ≤ 0.06 µg/mL
MIC (S.aureus 734 MRSA): 16 µg/mL (≈ 31.7 µM)
MIC (K.pneumoniae 418): ≤ 0.06 µg/mL
MIC (S.aureus MSSA; MIC range): 0.5 to 1 µg/mL (≈ 0.991 to 1.98 µM)
MIC50 (S.aureus MSSA): 1 µg/mL (≈ 1.98 µM)
MIC90 (S.aureus MSSA): 1 µg/mL (≈ 1.98 µM)
MIC50 (S.viridans group): 2 µg/mL (≈ 3.96 µM)
MIC90 (S.viridans group): 2 µg/mL (≈ 3.96 µM)
MIC (S.viridans group; MIC range): 0.12 to 8 µg/mL (≈ 0.238 to 15.9 µM)
MIC (E.faecium; MIC range): 1 to 32 µg/mL (≈ 1.98 to 63.4 µM)
MIC50 (E.faecium): 4 µg/mL (≈ 7.93 µM)
MIC (S.aureus MRSA): 16 to 32 µg/mL (≈ 31.7 to 63.4 µM)
MIC50 (S.aureus MRSA): 16 µg/mL (≈ 31.7 µM)
MIC90 (S.aureus MRSA): 16 µg/mL (≈ 31.7 µM)
MIC (E.faecalis [1]): 1 to 2 µg/mL (≈ 1.98 to 3.96 µM)
MIC50 (E.faecalis [1]): 1 µg/mL (≈ 1.98 µM)
MIC90 (E.faecalis [1]): 2 µg/mL (≈ 3.96 µM)
ED50 (S.aureus Smith): < 1 mg/kg
ED50 (Escherichia coli 25922; Escherichia coli 25922, po (orally) 1 and 3 h after challenge): 3 mg/kg
ED50 (Escherichia coli 25922; Escherichia coli, E.coli 25922, sc 1 and 3 h after challenge): ≤ 0.1 mg/kg
MIC (S.pneumoniae PEN-R; [3]): 0.12 to 0.5 µg/mL (≈ 0.238 to 0.991 µM)
MIC (S.pneumoniae PEN-R; medium IsoB + 20% serum): 0.12 to 0.5 µg/mL
MIC50 (S.pneumoniae PEN-R; [3]): 0.25 µg/mL (≈ 0.495 µM)
MIC90 (S.pneumoniae PEN-R; [3]): 0.5 µg/mL (≈ 0.991 µM)
MIC50 (S.pneumoniae PEN-R; medium IsoB + 20% serum): 0.5 µg/mL
MIC (M.catarrhalis; MIC range): 1 to 32 µg/mL (≈ 1.98 to 63.4 µM)
MIC50 (M.catarrhalis): 4 µg/mL (≈ 7.93 µM)
MIC90 (M.catarrhalis): 16 µg/mL (≈ 31.7 µM)
MIC (E.faecalis [2]; MIC range): 0.25 to 2 µg/mL (≈ 0.495 to 3.96 µM)
MIC50 (E.faecalis [2]): 1 µg/mL (≈ 1.98 µM)
MIC90 (E.faecalis [2]): 2 µg/mL (≈ 3.96 µM)

Nc1nc(/C(=N/O)C(=O)N[C@@H]2C(=O)N3C(C(=O)O)=C(/C=C4\CCN(c5ccccc5)C4=O)CS[C@H]23)cs1 [H]
MIC (S.agalactiae QK44): 0.25 µg/mL (≈ 0.462 µM)
MIC (Acinetobacter sp.51-156): 32 µg/mL (≈ 59.2 µM)
MIC (C.freundii 43): 4 µg/mL (≈ 7.4 µM)
MIC (P.vulgaris 1028): 2 µg/mL (≈ 3.7 µM)
MIC (E.coli 25922): 0.25 µg/mL (≈ 0.462 µM)
MIC (H.influenzae 1): 0.5 µg/mL (≈ 0.925 µM)
MIC (E.faecalis 6): 0.25 µg/mL (≈ 0.462 µM)
MIC (M.catarrhalis RA21): > 16 µg/mL
MIC (S.marcescens 69438): 1 µg/mL (≈ 1.85 µM)
MIC (P.aeruginosa 27853): 32 µg/mL (≈ 59.2 µM)
MIC (S.viridans group 016): 1 µg/mL (≈ 1.85 µM)
MIC (S.aureus 6538): 0.5 µg/mL (≈ 0.925 µM)
MIC (S.pyogenes B15): ≤ 0.06 µg/mL
MIC (E.cloacae 908R): 16 µg/mL (≈ 29.6 µM)
MIC (E.cloacae 908SSi): 0.5 µg/mL (≈ 0.925 µM)
MIC (P.mirabilis 2117): ≤ 0.06 µg/mL
MIC (C.freundii 902): 0.5 µg/mL (≈ 0.925 µM)
MIC (M.morganii 6H-137): ≤ 0.06 µg/mL
MIC (S.pneumoniae Q19): 0.12 µg/mL (≈ 0.222 µM)
MIC (X.maltophilia 1AC739): > 32 µg/mL
MIC (N.meningitidis 69480): 0.12 µg/mL (≈ 0.222 µM)
MIC (S.aureus 734 MRSA): 8 µg/mL (≈ 14.8 µM)
MIC (K.pneumoniae 418): 0.12 µg/mL (≈ 0.222 µM)
MIC (S.aureus MRSA): 16 to 32 µg/mL (≈ 29.6 to 59.2 µM)
MIC50 (S.aureus MRSA): 16 µg/mL (≈ 29.6 µM)
MIC90 (S.aureus MRSA): 16 µg/mL (≈ 29.6 µM)
MIC (E.faecalis [1]): 0.5 to 16 µg/mL (≈ 0.925 to 29.6 µM)
MIC50 (E.faecalis [1]): 1 µg/mL (≈ 1.85 µM)
MIC90 (E.faecalis [1]): 1 µg/mL (≈ 1.85 µM)
ED50 (S.aureus Smith): < 0.5 mg/kg
